Source: patent US8334316B2, “Substituted organosulfur compounds and methods of using thereof” (ACEA Biosciences, Inc., priority 2004, dated 2012)
Several values for one entry are separate records, joined by “and”; a condition that tells them apart may be missing. Equal entries are not always repeated.

Key:
mouse Lewis lung cancer = assay: In vivo antitumor efficacy, mouse Lewis lung cancer model (subcutaneously transplanted), Example 1
Experimental: Test controls. For the negative control, two groups were set up: the solvent only control group and normal saline control group. […] In the normal saline group, each mouse was administered with 0.5 ml of normal saline, once per day and for 7 or 10 consecutive days. For the positive control group, the anticancer compound, cyclophosphamide (CTX) was administered intraperitoneally at 30 mg/kg, once per day and for 7 or 10 consecutive days.
In the mouse Lewis lung cancer model, 200 mg of DBTS was dissolved in 5 mL castor oil (in polyoxyethlated version). […] The intravenous injection speed was about 0.5 mL/0.5 min.
The dosages and administration of test compounds are within the knowledge of those commonly skilled in pharmacology. For example, the test compounds may be administered by intravenous injection with a test compound solution twice per day and for 7 consecutive days. Alternatively, the test compounds may be administered by intravenous injection with a test compound solution once per day and for 10 consecutive days.
0.2 mL of the tumor cell suspension (between 4 and 8 million tumor cells) was then transplanted back into an experimental mouse by subcutaneous injection. […] Each removed solid tumor was weighted, and the tumor inhibition rate in the DBTS-treated groups and in the CTX-treated group was calculated according to the formula: Tumor inhibition rate %=(average weight of tumor in the negative control group−average weight of tumor in the compound treated group)/average weight of tumor in the negative control group×100 (2)
For the mouse Lewis lung cancer model, the Lewis lung cancer cells were subcutaneously transplanted at approximately 5 million cells per mouse. After 24 hours of the transplantation, each mouse in the test group was administered intravenously with dibenzyl trisulfide at 50, 25, or 12.5 mg/kg per day and for 10 consecutive days. For the positive control group, each mouse was administered with CTX at […] intraperitoneally per day and for 10 consecutive days. For the negative control group, each mouse was administered intravenously either with normal saline, or with the solvent for dibenzyl trisulfide at the same concentration as that in the test group per day and for consecutive 10 days. For each group, 10 mice were used.

[1] = tested on: human cancer cell lines (H460, MV522, MCF7, A549, PC3, A431, HT1080, MDA-231, HT29, HCC2998, OVCAR4, A2780); assay: RT-CES system, panel of human cancer cell lines treated with dibenzyl trisulfide; format: cell-based; conditions: 1.5625-100 μM; FIGS. 1-5, 6A, 7-12
Text: The RT-CES system comprises three components, an electronic sensor analyzer, a device station and 16× or 96× microtiter plate devices. Microelectrode sensor array was fabricated on glass slides with lithographical microfabrication methods and the electrode-containing slides are assembled to plastic trays to form electrode-containing wells. Each 16× (or 96×) microtiter plate device used in RT-CES system comprises up to 16 (or 96) such electrode-containing wells. The device station receives the 16× or 96× microtiter plate devices and is capable of electronically switching any one of the wells to the sensor analyzer for impedance measurement. […] Under the RT-CES software control, the sensor analyzer can automatically select wells to be measured and continuously conduct impedance measurements. The impedance data from the analyzer is transferred to a computer, analyzed and processed by the integrated software.
To quantify cell status based on the measured cell-electrode impedance, a parameter termed Cell Index is derived, according to
[formula] where Rb(f) and Rcell(f) are the frequency dependent electrode resistances (a component of impedance) without cells or with cell present, respectively. N is the number of the frequency points at which the impedance is measured. Thus, Cell Index is a quantitative measure of the status of the cells in an electrode-containing well. […]

## c1ccc(CSSSCc2ccccc2)cc1 [DBTS, Dibenzyl trisulfide]
Mouse Lewis lung cancer; 12.5 mg/kg/d iv x10 qd, vs 5% solvent control
  Inhibition rate (%): 37.38% and 37.28%
Mouse Lewis lung cancer; 12.5 mg/kg/d iv x10 qd, vs normal saline control
  Inhibition rate (%): 45.21%
Mouse Lewis lung cancer; 25 mg/kg/d iv x10 qd, vs 5% solvent control
  Inhibition rate (%): 44.30%
Mouse Lewis lung cancer; 25 mg/kg/d iv x10 qd, vs normal saline control
  Inhibition rate (%): 51.34%
Mouse Lewis lung cancer; 50 mg/kg/d iv x10 qd, vs 5% solvent control
  Inhibition rate (%): 62.28%
Mouse Lewis lung cancer; 50 mg/kg/d iv x10 qd, vs normal saline control
  Inhibition rate (%): 67.05% and 65%
[1]
  Effect on proliferation of cancer cell lines (time-dependent cell index): exhibited inhibitory effect on the proliferation of a number of cancer cell lines
